Test results published in US8168779B2, “Anhydrous crystalline β-maltose, its preparation and uses” (priority 2006, dated 2012).

Tests used:
Type in all cases: physicochemical
[1] = Hygroscopicity test (moisture content under controlled relative humidity); settings: 27° C.
Experimental: Moisture contents of the samples at respective periods were measured based on the change of weight from the start of the test. The moisture contents of the samples at the start of the test were measured by Karl Fischer's method.

[2] = Powderizing test by admixing deionized water; settings: 25° C.
Experimental: (§1) The usefulness of the crystal was judged by the amount of deionized water added to the limit of keeping the powder form. The form of the powder was evaluated by the following four phases: (1) powder; (2) lump (it keeps a powder form while it comprises lumps); (3) cake; and (4) paste. As a control, the anhydrous crystalline α-maltose used in Example 2 was treated by the same procedure. The test was carried out in a room where the temperature was kept at 25° C. The results of the test and the form of each sample after admixing with 1.25 ml of deionized water are shown in Table 7 and FIG. 15, respectively.

[3] = Powderizing test by admixing dehydrated ethanol
Experimental: as §1, with “respectively. […] The results of the test and the form of each sample after admixing with 6 ml of dehydrated ethanol are shown in Table 8 and FIG. 16, respectively.” for “respectively.”

[4] = Specific surface area by nitrogen adsorption isotherms (BET); settings: BET method, listed as anhydrous crystalline β-maltose converted by the ethanol treatment
Experimental: About 3 g of the anhydrous crystalline β-maltose, obtained in Example 1, was dried in the apparatus under a reduced pressure at about 40° C. for about 15 hours as a pretreatment, and then used for the measurement of specific surface area by the nitrogen adsorption isotherms. The result was analyzed by conventional BET (Brunnauer, Emmet, and Teller) method.

OC[C@H]1O[C@H](O[C@H]2[C@H](O)[C@@H](O)[C@H](O)O[C@@H]2CO)[C@H](O)[C@@H](O)[C@@H]1O [anhydrous crystalline β-maltose]
Moisture content of samples ([1]; RH 47% (lithium nitrate), 0 hour (start, Karl Fischer), listed as AC* β-Mal (Present invention)): 0.32 %, w/w | Moisture content of samples ([1]; RH 47% (lithium nitrate), 2 hours, listed as AC* β-Mal (Present invention)): 0.30 %, w/w | Moisture content of samples ([1]; RH 47% (lithium nitrate), 4 hours, listed as AC* β-Mal (Present invention)): 0.28 %, w/w | Moisture content of samples ([1]; RH 47% (lithium nitrate), 24 hours, listed as AC* β-Mal (Present invention)): 0.27 %, w/w | Moisture content of samples ([1]; RH 47% (lithium nitrate), 96 hours, listed as AC* β-Mal (Present invention)): 0.34 %, w/w | Moisture content of samples ([1]; RH 47% (lithium nitrate), 192 hours, listed as AC* β-Mal (Present invention)): 0.28 %, w/w | Moisture content of samples ([1]; RH 58% (sodium bromide), 0 hour (start, Karl Fischer), listed as AC β-Mal (Present invention)): 0.32 %, w/w | Moisture content of samples ([1]; RH 58% (sodium bromide), 2 hours, listed as AC β-Mal (Present invention)): 0.32 %, w/w | Moisture content of samples ([1]; RH 58% (sodium bromide), 4 hours, listed as AC β-Mal (Present invention)): 0.33 %, w/w | Moisture content of samples ([1]; RH 58% (sodium bromide), 6 hours, listed as AC β-Mal (Present invention)): 0.36 %, w/w | Moisture content of samples ([1]; RH 58% (sodium bromide), 8 hours, listed as AC β-Mal (Present invention)): 0.35 %, w/w | Moisture content of samples ([1]; RH 58% (sodium bromide), 24 hours, listed as AC β-Mal (Present invention)): 0.35 %, w/w | Moisture content of samples ([1]; RH 58% (sodium bromide), 96 hours, listed as AC β-Mal (Present invention)): 1.47 %, w/w | Moisture content of samples ([1]; RH 58% (sodium bromide), 192 hours, listed as AC β-Mal (Present invention)): 4.16 %, w/w | Moisture content of samples ([1]; RH 75% (sodium chloride), 0 hour (start, Karl Fischer), listed as AC β-Mal (Present invention)): 0.32 %, w/w | Moisture content of samples ([1]; RH 75% (sodium chloride), 2 hours, listed as AC β-Mal (Present invention)): 0.66 %, w/w | Moisture content of samples ([1]; RH 75% (sodium chloride), 4 hours, listed as AC β-Mal (Present invention)): 2.37 %, w/w | Moisture content of samples ([1]; RH 75% (sodium chloride), 6 hours, listed as AC β-Mal (Present invention)): 3.93 %, w/w | Moisture content of samples ([1]; RH 75% (sodium chloride), 8 hours, listed as AC β-Mal (Present invention)): 4.51 %, w/w | Moisture content of samples ([1]; RH 75% (sodium chloride), 24 hours, listed as AC β-Mal (Present invention)): 4.54 %, w/w | Moisture content of samples ([1]; RH 75% (sodium chloride), 96 hours, listed as AC β-Mal (Present invention)): 4.57 %, w/w | Moisture content of samples ([1]; RH 75% (sodium chloride), 192 hours, listed as AC β-Mal (Present invention)): 5.19 %, w/w | Moisture content of samples ([1]; RH 90% (barium chloride), 0 hour (start, Karl Fischer), listed as AC β-Mal (Present invention)): 0.32 %, w/w | Moisture content of samples ([1]; RH 90% (barium chloride), 2 hours, listed as AC β-Mal (Present invention)): 1.72 %, w/w | Moisture content of samples ([1]; RH 90% (barium chloride), 4 hours, listed as AC β-Mal (Present invention)): 4.53 %, w/w | Moisture content of samples ([1]; RH 90% (barium chloride), 6 hours, listed as AC β-Mal (Present invention)): 4.79 %, w/w | Moisture content of samples ([1]; RH 90% (barium chloride), 8 hours, listed as AC β-Mal (Present invention)): 4.58 %, w/w | Moisture content of samples ([1]; RH 90% (barium chloride), 24 hours, listed as AC β-Mal (Present invention)): 4.66 %, w/w | Moisture content of samples ([1]; RH 90% (barium chloride), 96 hours, listed as AC β-Mal (Present invention)): 4.82 %, w/w | Moisture content of samples ([1]; RH 90% (barium chloride), 192 hours, listed as AC β-Mal (Present invention)): 5.38 %, w/w | Form of the powder after admixing deionized water ([2]; 10 g crystal + 0.25 ml water (moisture content 2.4%, w/w)): Powder form | Form of the powder after admixing deionized water ([2]; 10 g crystal + 0.50 ml water (moisture content 4.8%, w/w)): Powder form | Form of the powder after admixing deionized water ([2]; 10 g crystal + 0.75 ml water (moisture content 7.0%, w/w)): Powder form | Form of the powder after admixing deionized water ([2]; 10 g crystal + 1.00 ml water (moisture content 9.1%, w/w)): Powder form | Form of the powder after admixing deionized water ([2]; 10 g crystal + 1.25 ml water (moisture content 11.1%, w/w)): Powder form | Form of the powder after admixing deionized water ([2]; 10 g crystal + 1.50 ml water (moisture content 13.0%, w/w)): Lump form | Form of the powder after admixing deionized water ([2]; 10 g crystal + 1.75 ml water (moisture content 14.9%, w/w)): Lump form | Form of the powder after admixing deionized water ([2]; 10 g crystal + 2.00 ml water (moisture content 16.7%, w/w)): Lump form | Form of the powder after admixing dehydrated ethanol ([3]; 10 g crystal + 3.0 ml ethanol (24.3 v/w %)): Powder form | Form of the powder after admixing dehydrated ethanol ([3]; 10 g crystal + 3.5 ml ethanol (27.5 v/w %)): Powder form | Form of the powder after admixing dehydrated ethanol ([3]; 10 g crystal + 4.0 ml ethanol (30.5 v/w %)): Powder form | Form of the powder after admixing dehydrated ethanol ([3]; 10 g crystal + 4.5 ml ethanol (33.3 v/w %)): Powder form | Form of the powder after admixing dehydrated ethanol ([3]; 10 g crystal + 5.0 ml ethanol (36.0 v/w %)): Powder form | Form of the powder after admixing dehydrated ethanol ([3]; 10 g crystal + 5.5 ml ethanol (38.5 v/w %)): Powder form | Form of the powder after admixing dehydrated ethanol ([3]; 10 g crystal + 6.0 ml ethanol (40.9 v/w %)): Powder form | Form of the powder after admixing dehydrated ethanol ([3]; 10 g crystal + 7.0 ml ethanol (45.3 v/w %)): Powder form | Form of the powder after admixing dehydrated ethanol ([3]; 10 g crystal + 8.0 ml ethanol (49.3 v/w %)): Powder form | Form of the powder after admixing dehydrated ethanol ([3]; 10 g crystal + 9.0 ml ethanol (52.9 v/w %)): Lump form | Form of the powder after admixing dehydrated ethanol ([3]; 10 g crystal + 10.0 ml ethanol (56.2 v/w %)): Lump form | Form of the powder after admixing dehydrated ethanol ([3]; 10 g crystal + 11.0 ml ethanol (59.2 v/w %)): Cake form | Specific surface area [4]: 3.39 m^2/g
